Patent US4112082A (priority 1975, dated 1978)

What was measured:
mice = conditions: mouse, in vivo, sc; cited from earlier work
[1] = tested on: spider mites (Tetrantychus strain), Normal Strain; conditions: in vivo
[2] = tested on: spider mites (Tetrantychus strain), Resistant Strain; conditions: in vivo

For CN(C)C(=O)Oc1cccc([N+](C)(C)C)c1 [neostigmine], the LD50 to mice (mice) is listed as 0.42 mg/kg.
With CCOC(=O)CC(SP(=S)(OC)OC)C(=O)OCC (stereo not drawn) [malathion] the “LD50, Normal Strain” value [1] was 50 μg/8 cm^2 and the “LD50, Resistant Strain” value [2] was 40 μg/8 cm^2.
